Source: US6706663B2, “Herbicidal 3-heterocyclic substituted benzisothiazole and benzisoxazole compounds” (Wyeth, priority 2000, dated 2004)

Experiments:
[1] = tested on: TRZAWR (Wheat, Winter, cv Riband); assay: Postemergence herbicidal evaluation; type: in vivo, Triticum aestivum; conditions: for TRZAWR herbicidal rating: postemergence
Method in brief: (§1)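 Seedlings grown about two weeks in flats, sprayed, then kept under standard greenhouse care. Rated visually 4–5 weeks after treatment on a 0–9 scale (stand, vigour, malformation, size, chlorosis, overall appearance) relative to untreated control; repeat tests averaged.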

[2] = tested on: SAGPY (Sagittaria pygmaea); assay: Flooded paddy, preemergence weed control; type: in vivo, L.; conditions: rated 3-4 weeks after treatment, 0-9 rating scale
Method in brief: (§2)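 Seeds or propagating organs were sown in the top 0.5 cm of silt loam soil, flooded, and the water kept 1.5 to 3 cm above the soil surface throughout. Plants were grown in the greenhouse and rated visually on a 0-9 scale against a control.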

[3] = tested on: ECHORC (Echinochloa oryzoides); assay: Flooded paddy, preemergence weed control; type: in vivo, Echinochloa oryzoides (Ard.) Fritsch.; conditions: rated 3-4 weeks after treatment, 0-9 rating scale
Method in brief: as §2

ORYSAT (Rice, Tebonnet) = assay: Preemergence herbicidal evaluation; type: in vivo, Oryza sativa, (L.) Tebonnet; conditions: rated 4-5 weeks after treatment
[4] = tested on: ECHCG (Echinochloa crus-galli); assay: Postemergence herbicidal evaluation; type: in vivo, (L.) Beau; conditions: for ECHCG herbicidal rating: postemergence
Method in brief: as §1

ZEAMX (Corn, Field) = assay: Postemergence herbicidal evaluation; type: in vivo, Zea mays, L.; conditions: for ZEAMX herbicidal rating: postemergence
Method in brief: as §1

[5] = tested on: CYPSE (Cyperus serotinus); assay: Flooded paddy, preemergence weed control; type: in vivo, Rottb.; conditions: rated 3-4 weeks after treatment, 0-9 rating scale
Method in brief: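 Seeds or propagules were planted 0.5 cm deep in silt loam and flooded to 1.5–3 cm. Compounds in 50/50 v/v aqueous/acetone were pipetted into the flood water at about 0.0080 to 0.1250 kg/ha. After 3–4 weeks in the greenhouse, effect was rated visually on a 0–9 scale versus untreated control.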

SETVI (Setaria viridis) = assay: Postemergence herbicidal evaluation; type: in vivo, (L.) Beau; conditions: for SETVI herbicidal rating: postemergence
Method in brief: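 Visual injury score (0-9: stand, vigor, malformation, size, chlorosis, overall appearance vs untreated control) taken four to five weeks post-spray. Two-week-old seedlings received about 0.0040 to 1.000 kg/ha active compound in acetone/water with 0.5% TWEEN 20.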

GALAP (Galium aparine) = assay: Postemergence herbicidal evaluation; type: in vivo; conditions: for GALAP herbicidal rating: postemergence
Method in brief: as §1

Compound | herbicidal rating, SAGPY ([2]; rate 0.0080 kg/ha) | herbicidal rating, SAGPY ([2]; rate 0.0320 kg/ha) | herbicidal rating, SAGPY ([2]; rate 0.1250 kg/ha) | herbicidal rating, ECHORC ([3]; rate 0.0080 kg/ha) | herbicidal rating, ECHORC ([3]; rate 0.0320 kg/ha) | herbicidal rating, ECHORC ([3]; rate 0.1250 kg/ha) | Preemergence herbicidal rating ORYSAT (ORYSAT (Rice, Tebonnet); Rate 0.0620 kg/ha) | Preemergence herbicidal rating ORYSAT (ORYSAT (Rice, Tebonnet); Rate 0.1250 kg/ha) | Preemergence herbicidal rating ORYSAT (ORYSAT (Rice, Tebonnet); Rate 0.2500 kg/ha) | herbicidal rating, CYPSE ([5]; rate 0.0320 kg/ha) | herbicidal rating, CYPSE ([5]; rate 0.1250 kg/ha) | TRZAWR herbicidal rating ([1]; rate 0.0320 kg/ha) | TRZAWR herbicidal rating ([1]; rate 0.0620 kg/ha) | ECHCG herbicidal rating ([4]; rate 0.0320 kg/ha) | ECHCG herbicidal rating ([4]; rate 0.0620 kg/ha) | ZEAMX herbicidal rating (ZEAMX (Corn, Field); rate 0.0320 kg/ha) | ZEAMX herbicidal rating (ZEAMX (Corn, Field); rate 0.0620 kg/ha) | SETVI herbicidal rating (SETVI (Setaria viridis); rate 0.0320 kg/ha) | SETVI herbicidal rating (SETVI (Setaria viridis); rate 0.0620 kg/ha) | GALAP herbicidal rating (GALAP (Galium aparine); rate 0.0320 kg/ha) | other results
C[C@H]1OC(c2nsc3ccc(-n4c(=O)cc(C(F)(F)F)n(C)c4=O)cc23)O[C@@H]1C [Compound 48, 3-[3-[(4R,5R)-4,5-dimethyl-1,3-dioxolan-2-yl]-1,2-benzisothiazol-5-yl]-1-methyl-6-(trifluoromethyl)uracil] | 0.0 | 7.5 | 9.0 | 8.0 | 9.0 | 9.0 | 7.5 | 8.0 | 9.0 | 9.0 | 9.0 | – | – | – | – | – | – | – | – | – | Postemergence herbicidal rating, TRZAWR ([1]; rate 0.0320 kg/ha): 5.0; Postemergence herbicidal rating, TRZAWR ([1]; rate 0.0620 kg/ha): 5.7; Postemergence herbicidal rating, ECHCG ([4]; rate 0.0320 kg/ha): 5.0; Postemergence herbicidal rating, ECHCG ([4]; rate 0.0620 kg/ha): 3.0; Postemergence herbicidal rating, ZEAMX (ZEAMX (Corn, Field); rate 0.0320 kg/ha): 4.5; Postemergence herbicidal rating, ZEAMX (ZEAMX (Corn, Field); rate 0.0620 kg/ha): 5.7; Postemergence herbicidal rating, SETVI (SETVI (Setaria viridis); rate 0.0320 kg/ha): 9.0; Postemergence herbicidal rating, SETVI (SETVI (Setaria viridis); rate 0.0620 kg/ha): 9.0; Postemergence herbicidal rating, GALAP (GALAP (Galium aparine); rate 0.0320 kg/ha): 9.0; Postemergence herbicidal rating, GALAP (GALAP (Galium aparine); rate 0.0620 kg/ha): 9.0
Cc1nn(-c2nsc3ccc(-n4c(=O)cc(C(F)(F)F)n(C)c4=O)cc23)c(C)c1C [Compound 49, 1-methyl-6-(trifluoromethyl)-3-[3-(3,4,5-trimethylpyrazol-1-yl)-1,2-benzisothiazol-5-yl]uracil] | – | 0.0 | 0.0 | – | 0.0 | 0.0 | 0.0 | 0.0 | 0.0 | 0.0 | 0.0 | 0.5 | 1.5 | 0.0 | 0.0 | 0.5 | 2.5 | 0.0 | 0.0 | 0.0 | GALAP herbicidal rating (GALAP (Galium aparine); rate 0.0620 kg/ha): 0.0
C[C@@H]1C[C@H](C)OC(c2nsc3ccc(-n4c(=O)cc(C(F)(F)F)n(C)c4=O)cc23)O1 (stereo partly drawn) [Compound 51, 3-[3-[(4R,6S)-4,6-dimethyl-m-dioxan-2-yl]-1,2-benzisothiazol-5-yl]-1-methyl-6-(trifluoromethyl)uracil] | 0.0 | 7.0 | 9.0 | 8.0 | 9.0 | 9.0 | 8.5 | 9.0 | 9.0 | 9.0 | 9.0 | 3.5 | 4.0 | 3.0 | 3.0 | 5.0 | 5.5 | 3.0 | 3.0 | 2.0 | GALAP herbicidal rating (GALAP (Galium aparine); rate 0.0620 kg/ha): 5.0
